From patent publication US12139520B2 (priority 2020, dated 2024)
Bridge positions count the residues as written; N and C are the ends. Square brackets hold non-standard residues; d marks the D form. Peptide text beside a SMILES is read from it. Hyp = O=C(O)[C@@H]1C[C@@H](O)CN1

Tests used:
hAM1 receptor = hAM1 receptor (Homo sapiens, UniProt O60895+Q16602); experiment: cAMP assay for in vitro receptor activation, hAM1-R; type: cell-based; details: cAMP assay, hAM1 receptor; read-out: hAM1R EC50
Summary of the method: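 Read-out is intracellular cAMP as a measure of receptor activation. Cells stably overexpressing hAM1 were subcloned to a monoclonal line, then thawed and seeded at 8000 cells/well in DPBS with 0.05% casein and the phosphodiesterase inhibitor IBMX at 0.5 mM.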

[1] = Physical stability of peptide analogues (Thioflavin T fibrillation); type: physicochemical; details: maximum ThT signal normalized between hAMY maximum and buffer background; 40° C., shaking, four days; pH 7 per table title
Summary of the method: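 Maximum ThT emission at 480 nm, after LOESS smoothing, is given as percent of the span from buffer background to hAMY. Conditions: 50 mM buffer at pH 4 or 7, 4 μM dye, 40 °C, repeated shaking, readings every 10 min for four days.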

hAMY3 receptor = target: T1, hAMY3 receptor (Homo sapiens, UniProt O60896+P30988); experiment: cAMP assay for in vitro receptor activation, hAMY3-R; type: cell-based; details: cAMP assay, hAMY3 receptor; read-out: hAMY3R EC50
T1 sequence (P30988 25-474): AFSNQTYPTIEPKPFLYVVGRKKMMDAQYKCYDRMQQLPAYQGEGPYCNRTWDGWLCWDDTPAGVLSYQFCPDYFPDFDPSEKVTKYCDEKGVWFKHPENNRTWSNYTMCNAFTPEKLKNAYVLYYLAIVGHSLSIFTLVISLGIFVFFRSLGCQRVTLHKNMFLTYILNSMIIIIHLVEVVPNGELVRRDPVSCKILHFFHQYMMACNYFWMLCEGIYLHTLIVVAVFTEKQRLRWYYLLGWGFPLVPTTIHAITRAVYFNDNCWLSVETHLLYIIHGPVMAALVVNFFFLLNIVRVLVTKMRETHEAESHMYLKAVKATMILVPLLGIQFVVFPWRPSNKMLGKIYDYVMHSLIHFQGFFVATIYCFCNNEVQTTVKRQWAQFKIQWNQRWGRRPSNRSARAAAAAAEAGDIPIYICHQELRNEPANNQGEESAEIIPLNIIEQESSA
T1 sequence (O60896 24-148 partner): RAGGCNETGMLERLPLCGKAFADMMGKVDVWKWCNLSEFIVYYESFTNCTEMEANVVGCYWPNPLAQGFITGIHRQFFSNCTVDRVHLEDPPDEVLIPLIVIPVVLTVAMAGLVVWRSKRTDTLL
Summary of the method: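 Receptor activation was measured as cAMP accumulation in a monoclonal cell line stably overexpressing hAMY3. Stimulation with graded doses lasted 30 min at room temperature in the presence of 0.5 mM IBMX, with human amylin as positive control.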

Chain of hAM1 receptor (Q16602 23-461): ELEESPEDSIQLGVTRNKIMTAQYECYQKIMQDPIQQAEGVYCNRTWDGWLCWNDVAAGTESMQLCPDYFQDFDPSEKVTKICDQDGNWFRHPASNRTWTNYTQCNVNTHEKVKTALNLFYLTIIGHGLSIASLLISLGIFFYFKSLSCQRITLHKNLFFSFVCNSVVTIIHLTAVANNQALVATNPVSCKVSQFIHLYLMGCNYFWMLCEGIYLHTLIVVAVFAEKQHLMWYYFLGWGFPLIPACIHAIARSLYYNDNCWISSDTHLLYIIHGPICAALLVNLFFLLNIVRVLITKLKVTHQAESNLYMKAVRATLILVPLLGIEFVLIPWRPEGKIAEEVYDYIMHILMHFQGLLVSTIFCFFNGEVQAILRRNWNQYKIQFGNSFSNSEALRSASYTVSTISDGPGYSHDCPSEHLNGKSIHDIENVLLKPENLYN
Chain of hAM1 receptor (O60895 43-175 partner): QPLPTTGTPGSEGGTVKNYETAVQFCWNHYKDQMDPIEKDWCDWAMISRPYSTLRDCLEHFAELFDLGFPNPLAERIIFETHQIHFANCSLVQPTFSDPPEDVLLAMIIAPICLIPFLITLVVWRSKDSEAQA

Compound	EC50 (hAM1 receptor) [nM]	Max ThT signal (%) [1] [%]	EC50 (hAMY3 receptor) [nM]
CC[C@H](C)[C@H](NC(=O)[C@H](CCCCN)NC(=O)[C@@H](NC(=O)[C@H](CCCNC(=N)N)NC(=O)[C@@H]1CCCN1C(=O)[C@H](C)NC(=O)[C@@H](NC(=O)[C@H](CC(N)=O)NC(=O)[C@H](CC(=O)O)NC(=O)[C@H](CCCCN)NC(=O)[C@H](CC(=O)O)NC(=O)[C@H](CCCCN)NC(=O)[C@H](CC(=O)O)NC(=O)[C@@H](NC(=O)[C@H](Cc1ccccc1)NC(=O)[C@H](CCC(N)=O)NC(=O)[C@H](Cc1ccc(O)cc1)NC(=O)[C@@H](NC(=O)[C@H](CCC(N)=O)NC(=O)[C@H](Cc1c[nH]cn1)NC(=O)[C@H](C)NC(=O)[C@H](CC(C)C)NC(=O)[C@H](CCCNC(=N)N)NC(=O)[C@H](CCC(N)=O)NC(=O)[C@@H](NC(=O)[C@@H](NC(=O)[C@@H]1CSSC[C@H](NC(=O)CN)C(=O)N[C@@H](CCCNC(=N)N)C(=O)N[C@@H]([C@@H](C)O)C(=O)NCC(=O)N[C@@H]([C@@H](C)O)C(=O)N1)[C@@H](C)O)C(C)C)[C@@H](C)CC)[C@@H](C)O)C(C)C)[C@@H](C)O)C(=O)NCC(=O)N1CCC[C@H]1C(=O)N[C@@H](CC(N)=O)C(=O)NCC(=O)N1C[C@H](O)C[C@H]1C(N)=O [compound 115] (H-GCRTGTCTVQRLAHQIYQFTDKDKDNVAPRTKIGPNG[Hyp]-NH2; disulfide 2-7; N-terminus assumed)	130	2.500	–
CC[C@H](C)[C@H](NC(=O)[C@H](CCC(N)=O)NC(=O)[C@H](Cc1c[nH]cn1)NC(=O)[C@H](C)NC(=O)[C@H](CC(C)C)NC(=O)[C@H](CCCNC(=N)N)NC(=O)[C@H](CCC(N)=O)NC(=O)[C@@H](NC(=O)[C@@H](NC(=O)[C@@H]1CSSC[C@H](NC(=O)CN)C(=O)N[C@@H](CCCNC(=N)N)C(=O)N[C@@H](Cc2ccccc2)C(=O)NCC(=O)N[C@@H]([C@@H](C)O)C(=O)N1)[C@@H](C)O)C(C)C)C(=O)N[C@@H](Cc1ccc(O)cc1)C(=O)N[C@@H](CCC(N)=O)C(=O)N[C@@H](Cc1ccccc1)C(=O)N[C@H](C(=O)N[C@@H](CC(=O)O)C(=O)N[C@@H](CCCCN)C(=O)N[C@@H](CC(=O)O)C(=O)N[C@@H](CCCCN)C(=O)N[C@@H](CC(=O)O)C(=O)N[C@@H](CC(N)=O)C(=O)N[C@H](C(=O)N[C@@H](C)C(=O)N1CCC[C@H]1C(=O)N[C@@H](CCCNC(=N)N)C(=O)N[C@@H](CO)C(=O)N[C@@H](CCCCN)C(=O)N[C@H](C(=O)N[C@@H](CO)C(=O)N1CCC[C@H]1C(=O)N[C@@H](CCC(N)=O)C(=O)N[C@H](C(=O)N1C[C@H](O)C[C@H]1C(N)=O)[C@@H](C)O)[C@@H](C)CC)C(C)C)[C@@H](C)O [compound 168] (H-GCRFGTCTVQRLAHQIYQFTDKDKDNVAPRSKISPQT[Hyp]-NH2; disulfide 2-7; N-terminus assumed)	> 5000	12.500	–
CC[C@H](C)[C@H](NC(=O)[C@H](CCC(N)=O)NC(=O)[C@H](Cc1c[nH]cn1)NC(=O)[C@H](C)NC(=O)[C@H](CC(C)C)NC(=O)[C@H](CCCNC(=N)N)NC(=O)[C@H](CCC(N)=O)NC(=O)[C@@H](NC(=O)[C@@H](NC(=O)[C@@H]1CSSC[C@H](NC(=O)CN)C(=O)N[C@@H](CCCNC(=N)N)C(=O)N[C@@H](CCSC)C(=O)NCC(=O)N[C@@H]([C@@H](C)O)C(=O)N1)[C@@H](C)O)C(C)C)C(=O)N[C@@H](Cc1ccc(O)cc1)C(=O)N[C@@H](CCC(N)=O)C(=O)N[C@@H](Cc1ccccc1)C(=O)N[C@H](C(=O)N[C@@H](CC(=O)O)C(=O)N[C@@H](CCCCN)C(=O)N[C@@H](Cc1ccccc1)C(=O)N[C@@H](CCCCN)C(=O)N[C@@H](CC(=O)O)C(=O)N[C@@H](CC(N)=O)C(=O)N[C@H](C(=O)N[C@@H](C)C(=O)N1CCC[C@H]1C(=O)N[C@@H](CCCNC(=N)N)C(=O)N[C@@H](CO)C(=O)N[C@@H](CCCCN)C(=O)N[C@H](C(=O)N[C@@H](CO)C(=O)N1CCC[C@H]1C(=O)N[C@@H](CCC(N)=O)C(=O)N[C@H](C(=O)N1C[C@H](O)C[C@H]1C(N)=O)[C@@H](C)O)[C@@H](C)CC)C(C)C)[C@@H](C)O [compound 173] (H-GCRMGTCTVQRLAHQIYQFTDKFKDNVAPRSKISPQT[Hyp]-NH2; disulfide 2-7; N-terminus assumed)	> 5000	4.400	–
CC[C@H](C)[C@H](NC(=O)[C@H](CCC(N)=O)NC(=O)[C@H](Cc1c[nH]cn1)NC(=O)[C@H](C)NC(=O)[C@H](CC(C)C)NC(=O)[C@H](CCCNC(=N)N)NC(=O)[C@H](CCC(N)=O)NC(=O)[C@@H](NC(=O)[C@@H](NC(=O)[C@@H]1CSSC[C@H](NC(=O)CN)C(=O)N[C@@H](CCCNC(=N)N)C(=O)N[C@@H]([C@@H](C)O)C(=O)NCC(=O)N[C@@H]([C@@H](C)O)C(=O)N1)[C@@H](C)O)C(C)C)C(=O)N[C@@H](Cc1c[nH]cn1)C(=O)N[C@@H](CCC(N)=O)C(=O)N[C@@H](Cc1ccccc1)C(=O)N[C@H](C(=O)N[C@@H](CC(=O)O)C(=O)N[C@@H](CCCCN)C(=O)N[C@@H](Cc1ccccc1)C(=O)N[C@@H](CCCCN)C(=O)N[C@@H](CC(=O)O)C(=O)N[C@@H](CC(N)=O)C(=O)N[C@H](C(=O)N[C@@H](C)C(=O)N1CCC[C@H]1C(=O)N[C@@H](CCCNC(=N)N)C(=O)N[C@@H](CO)C(=O)N[C@@H](CCCCN)C(=O)N[C@H](C(=O)N[C@@H](CO)C(=O)N1CCC[C@H]1C(=O)N[C@@H](CCC(N)=O)C(=O)N[C@H](C(=O)N1C[C@H](O)C[C@H]1C(N)=O)[C@@H](C)O)[C@@H](C)CC)C(C)C)[C@@H](C)O [compound 193] (H-GCRTGTCTVQRLAHQIHQFTDKFKDNVAPRSKISPQT[Hyp]-NH2; disulfide 2-7; N-terminus assumed)	> 5000	2.700	–
CC[C@H](C)[C@H](NC(=O)[C@H](CCC(N)=O)NC(=O)[C@H](Cc1c[nH]cn1)NC(=O)[C@H](C)NC(=O)[C@H](CC(C)C)NC(=O)[C@H](CCCNC(=N)N)NC(=O)[C@H](CCC(N)=O)NC(=O)[C@@H](NC(=O)[C@@H](NC(=O)[C@@H]1CSSC[C@H](NC(=O)CN)C(=O)N[C@@H](CCCNC(=N)N)C(=O)N[C@@H]([C@@H](C)O)C(=O)NCC(=O)N[C@@H]([C@@H](C)O)C(=O)N1)[C@@H](C)O)C(C)C)C(=O)N[C@@H](C)C(=O)N[C@@H](CCC(N)=O)C(=O)N[C@@H](Cc1ccccc1)C(=O)N[C@H](C(=O)N[C@@H](CC(=O)O)C(=O)N[C@@H](CCCCN)C(=O)N[C@@H](Cc1ccccc1)C(=O)N[C@@H](CCCCN)C(=O)N[C@@H](CC(=O)O)C(=O)N[C@@H](CC(N)=O)C(=O)N[C@H](C(=O)N[C@@H](C)C(=O)N1CCC[C@H]1C(=O)N[C@@H](CCCNC(=N)N)C(=O)N[C@@H](CO)C(=O)N[C@@H](CCCCN)C(=O)N[C@H](C(=O)N[C@@H](CO)C(=O)N1CCC[C@H]1C(=O)N[C@@H](CCC(N)=O)C(=O)N[C@H](C(=O)N1C[C@H](O)C[C@H]1C(N)=O)[C@@H](C)O)[C@@H](C)CC)C(C)C)[C@@H](C)O [compound 196] (H-GCRTGTCTVQRLAHQIAQFTDKFKDNVAPRSKISPQT[Hyp]-NH2; disulfide 2-7; N-terminus assumed)	> 5000	0.500	–
CC[C@H](C)[C@H](NC(=O)[C@H](CCCCN)NC(=O)[C@@H](NC(=O)[C@H](CCCNC(=N)N)NC(=O)[C@@H]1CCCN1C(=O)[C@H](C)NC(=O)[C@@H](NC(=O)[C@H](CC(N)=O)NC(=O)[C@H](CC(=O)O)NC(=O)[C@H](CCCCN)NC(=O)[C@H](CC(=O)O)NC(=O)[C@H](CCCCN)NC(=O)[C@H](CC(=O)O)NC(=O)[C@@H](NC(=O)[C@H](Cc1ccccc1)NC(=O)[C@H](CCC(N)=O)NC(=O)[C@H](Cc1ccc(O)cc1)NC(=O)[C@H](CC(C)C)NC(=O)[C@H](Cc1ccccc1)NC(=O)[C@H](Cc1c[nH]cn1)NC(=O)[C@H](C)NC(=O)[C@H](CC(C)C)NC(=O)[C@H](CCCNC(=N)N)NC(=O)[C@H](CCC(N)=O)NC(=O)[C@@H](NC(=O)[C@@H](NC(=O)[C@@H]1CSSC[C@H](NC(=O)CN)C(=O)N[C@@H](CCCNC(=N)N)C(=O)N[C@@H](Cc2ccccc2)C(=O)NCC(=O)N[C@@H]([C@@H](C)O)C(=O)N1)[C@@H](C)O)C(C)C)[C@@H](C)O)C(C)C)[C@@H](C)O)C(=O)NCC(=O)N[C@@H](CO)C(=O)N[C@@H](CC(N)=O)C(=O)NCC(=O)N[C@@H](Cc1ccc(O)cc1)C(N)=O [compound 376] (H-GCRFGTCTVQRLAHFLYQFTDKDKDNVAPRTKIGSNGY-NH2; disulfide 2-7; N-terminus assumed)	12	–	0.022
